This note sets out measurements from patent US20090208539A1, “STABLE ATORVASTATIN FORMULATIONS” (priority 2004, published 2009).

This data set is described as follows: Compatibility test of atorvastatin calcium with excipients (water added, sealed vial, 50° C., two weeks; impurities by HPLC, physical changes). The class given is physicochemical. The conditions noted are these: for Compatibility: 0.2 ml water added, sealed vial, two weeks. How it is done:
In order for an excipient to be used with an embodiment of the formulation of the present invention, it was required to perform acceptably during the compatibility testing. The acceptance criteria for the compatibility test were as follows. […] Physical stability was determined by examining the mixture's appearance in terms of discoloration, liquefaction, dryness and odor or gas.
A granulate or dry mix of the drug substance and each of the excipients requested to the expected ratio in the possible final formulas was prepared. The granulate was prepared manually with a mortar and pestle. The active ingredient is mixed with the ingredient(s) to be tested, then granulated in a mortar and pestle using the aqueous granulation solution. The wet granulate was then dried in an oven at 60° C. down to LOD<5% and then milled.
The compatibility test was performed as follows. Each mixture (blend or granulate) was transferred to a vial, 0.2 ml of purified water was added, and the mixtures were mixed with a Pasteur pipette, which was then broken and inserted in the vial in order to avoid any loss of material.
The vials were then sealed and stored at a temperature of 50° C. for two weeks.
After two weeks the vials were removed, examined for physical changes and were tested for impurities according to the HPLC method (RD 2000-1) as described in greater detail below.
75 ml of diluent was added and the samples were shaken for 30 min, and then diluted to volume with diluent.
5 ml of the above mentioned solution was transferred and diluted in a 10 ml volumetric flask. The diluent for all experiments was water:methanol mixture.
Part of each dry granulate was placed in a 34 ml Securitainer® (a regular secure medicine bottle made from high density polyethylene; available from Jaycare Ltd in the United Kingdom) and placed in incubator at 40° C./75% RH for a 6 month stability study. Next, separate samples containing 1 g of each dry granulate were mixed with 200 μl water (LOD of the blend 16.67%), closed in a glass vial and stored at 50° C. for a 2 week compatibility test.
Results of those compatibility and stability studies are summarized in table 4; a more detailed description of the same results is provided in table 5 below. Stability or compatibility criteria were defined as: maximum known impurity <0.5% (preferably comprising one or both of the Desfluoro (Desfl.) or lactone (Lact.) degradation forms); maximum unknown impurity <0.5%, preferably <0.3%; total impurities <1.5%.
One gram of each blend was mixed with 200 μl purified water (LOD of the blend was 16.67%), placed in a closed glass vial and placed for 2 weeks in an incubator at 50° C. for a compatibility test.

Where [1] appears, read: amorphous atorvastatin calcium, no excipient, 2 weeks, 16.7% LOD.

On to `CC(C)c1c(C(=O)Nc2ccccc2)c(-c2ccccc2)c(-c2ccc(F)cc2)n1CC[C@@H](O)C[C@@H](O)CC(=O)[O-].CC(C)c1c(C(=O)Nc2ccccc2)c(-c2ccccc2)c(-c2ccc(F)cc2)n1CC[C@@H](O)C[C@@H](O)CC(=O)[O-].[Ca+2]` [Vial 1], for which the Compatibility result was “Stable” (amorphous Atorvastatin Ca dry mixes) and “Stable” (crystalline form VI Atorvastatin Ca granulates).

For `CC(C)c1c(C(=O)Nc2ccccc2)c(-c2ccccc2)c(-c2ccc(F)cc2)n1CC[C@@H](O)C[C@@H](O)CC(=O)[O-].CC(C)c1c(C(=O)Nc2ccccc2)c(-c2ccccc2)c(-c2ccc(F)cc2)n1CC[C@@H](O)C[C@@H](O)CC(=O)[O-].[Ca+2]` [Reference (no excipient added)], under setting [1], the Desfluoro was 0.12%, the Lactone is listed as 0.04%, the Max unknown impurity was found to be 0.05% and the “Total Impurities” value is on record as 0.33%.
